Entries after “also recorded” stand apart in the source; their conditions may differ.
Tested on: Normal human dermal fibroblasts
Experiment: in vitro dermal fibroblast collagen assay (collagen 1 immunolabeling, flow cytometry)
Assay type: cell-based
Settings: for Collagen 1 expression relative to untreated (%): 72 hours treatment, mean, n = 4, untreated = 100%; for effect on collagen type 1 (result in words): normal human dermal fibroblasts, 72 hours, several concentrations
Protocol: The neutral core human milk oligosaccharides LNT and LNnT were evaluated for their effect on collagen type 1. This was done using an in vitro dermal fibroblast collagen assay. […] For comparative reasons, also another human milk oligosaccharide was tested, i.e. 6′-silalyllactose (6′SL).
Normal human dermal fibroblasts were seeded in cell culture medium (Dulbecco's Modified Eagle Medium supplemented with 10% serum and 1% antibiotics) and allowed to adhere in a humidified cell incubator maintaining 37° C. and 5% CO2. Afterwards, the cells were starved with culture medium without serum for 16-24 hours to synchronize the cells their cell cycle. The starvation medium was removed and cell culture medium+LNT or LNnT respectively 6′SL at various concentrations was added to the cells. The cells were treated for 72 hours. The cells were then fixated and immunolabeled with antibodies specific for collagen 1. These labeled cells were analyzed using flow cytometry and compared to the untreated ones (medium without LNT respectively LNnT or 6′SL).

Row | SMILES | Collagen 1 expression relative to untreated (%) (0.10 μM) | Collagen 1 expression relative to untreated (%) (1.00 μM) | Collagen 1 expression relative to untreated (%) (50 μM) | effect on collagen type 1 (result in words) | Collagen 1 expression relative to untreated (%) (0.05 μM) | Collagen 1 expression relative to untreated (%) (100 μM) | Collagen 1 expression relative to untreated (%) (0.50 μM)
1 | CC(=O)N[C@H]1[C@H]([C@H](O)[C@H](O)CO)O[C@@](OC[C@H]2O[C@@H](O[C@H]3[C@H](O)[C@@H](O)[C@H](O)O[C@@H]3CO)[C@H](O)[C@@H](O)[C@H]2O)(C(=O)O)C[C@@H]1O [6′SL, 6′-silalyllactose, reference compound] | 103 | 121 | 100 | much smaller effect |  |  | 
2 | CC(=O)N[C@H]1[C@H](O[C@H]2[C@@H](O)[C@@H](CO)O[C@@H](O[C@H]3[C@H](O)[C@@H](O)C(O)O[C@@H]3CO)[C@@H]2O)O[C@H](CO)[C@@H](O[C@@H]2O[C@H](CO)[C@H](O)[C@H](O)[C@H]2O)[C@@H]1O (mixture of isomers) [LNnT, lacto-N-neotetraose] | 129 | 167 | 172 | most active in inducing collagen synthesis; also recorded: increase collagen expression | 117 | 177 | 
3 | CC(=O)N[C@H]1[C@H](O[C@H]2[C@@H](O)[C@@H](CO)O[C@@H](O[C@H]3[C@H](O)[C@@H](O)C(O)O[C@@H]3CO)[C@@H]2O)O[C@H](CO)[C@@H](O)[C@@H]1O[C@@H]1O[C@H](CO)[C@H](O)[C@H](O)[C@H]1O (stereo partly drawn) [LNT, lacto-N-tetraose] |  | 159 | 164 | increase collagen expression |  | 163 | 139

From patent publication US20250161184A1, “NOVEL USE” (DSM IP Assets B.V., priority 2022, published 2025)
